Data: patent US20250340572A1, “COMPOSITIONS USEFUL FOR MODULATING SPLICING” (Skyhawk Therapeutics, Inc., priority 2022, published 2025)

Legend:
total ATXN3 protein = assay: ATXN3 total protein assay (MSD); assay type: cell-based; details: Homo sapiens, SK-N-MC cells, 48 h incubation
Experimental: Human neuroblastoma SK-N-MC cells were seeded at 10,000 cells/well in 384 well plates one day prior to compound treatment. The concentrations of compounds were tested at appropriate doses ranging from 30 μM to 0.6 nM. After incubation for 48 hours, the cells were lysed with 25 μL of lysis buffer containing protease inhibitors, and total ATXN3 protein levels were assessed by Mesoscale Discovery (MSD) assay developed with one pair of anti-ATXN3 antibodies. The capture and detect antibodies were raised in mouse and rabbit respectively. Anti-rabbit MSD-ST antibody was used for secondary antibody.
ATXN3 recombinant protein was used for standards. The readouts were captured with 35 μL of MSD read buffer and multi-array 384-well high binding plates.

[1] = system: ATXN3 transcripts containing exon 4 (E4E5); assay: ATXN3 quantitative splicing assay (qPCR, E4E5 primers/probe); assay type: cell-based; details: Homo sapiens; SK-N-MC cells, 24 h treatment, qPCR of exon 4 containing transcripts
Experimental: Human neuroblastoma SK-N-MC cells were plated in 384-well plates at 20,000 cells/well. Twenty-four hours after plating, cells were treated with compounds for 24 h at appropriate concentrations ranging from 30 μM to 0.6 nM (0.300 DMSO). Treated cells were lysed in 15 μL of lysis buffer, and cDNA was synthesized using the Fast Advanced Cells-to-Ct kit. Two μL of each cDNA was used in qPCR reactions to confirm the exon 4 skipped transcripts of ATXN3. A second set of primers/probe E4E5 was used to detect the transcripts containing exon 4. The third set of primers/probe E8E9 was used to detect total gene level of ATXN3. The qPCR reactions were prepared in 384-well plates in 10 μL volume, using TaqMan™ Fast Advanced Master Mix with primers and probes shown in the table below. Reactions were run in a Quant Studio 6 qPCR instrument with default settings.
The primers and probes are listed below in Table 5.

For CC#Cc1c(C[C@H](C)N)sc2c(NCc3cccs3)snc12 [Compound 1, 7-[(S)-2-aminopropyl]-8-(1-propynyl)-4-thenylamino-3,6-dithia-2-azabicyclo[3.3.0]octa-1,4,7-triene], the IC50 (total ATXN3 protein) was 101 to 500 nM and the IC50 [1] was 101 to 500 nM.
Work on C[C@H](N)Cc1sc2c(NCc3cccs3)snc2c1C#Cc1ccccc1 [Compound 2, 7-[(S)-2-aminopropyl]-8-(2-phenylethynyl)-4-thenylamino-3,6-dithia-2-azabicyclo[3.3.0]octa-1,4,7-triene] yielded an IC50 (total ATXN3 protein) of 501 to 5000 nM and an IC50 [1] of 5000 to 10000 nM.
CC(C)C#Cc1c(C[C@H](C)N)sc2c(NCc3cccs3)snc12 [Compound 4, 7-[(S)-2-aminopropyl]-8-(3-methyl-1-butynyl)-4-thenylamino-3,6-dithia-2-azabicyclo[3.3.0]octa-1,4,7-triene] was tested, and the IC50 (total ATXN3 protein) was 5000 to 10000 nM and the IC50 [1] was 5000 to 10000 nM.
CC(C)C#Cc1c(C[C@H](C)N)sc2c(NCc3ccco3)snc12 [Compound 5, 7-[(S)-2-aminopropyl]-4-(furfurylamino)-8-(3-methyl-1-butynyl)-3,6-dithia-2-azabicyclo[3.3.0]octa-1,4,7-triene] showed an IC50 (total ATXN3 protein) of 501 to 5000 nM and an IC50 [1] of 501 to 5000 nM.
C[C@H](N)Cc1sc2c(NCc3cccs3)snc2c1C#CC1CC1 [Compound 6, 7-[(S)-2-aminopropyl]-8-(2-cyclopropylethynyl)-4-thenylamino-3,6-dithia-2-azabicyclo[3.3.0]octa-1,4,7-triene] showed an IC50 (total ATXN3 protein) of 501 to 5000 nM and an IC50 [1] of 101 to 500 nM.
C[C@H](N)Cc1sc2c(NCc3ccco3)snc2c1C#CC1CC1 [Compound 7, 7-[(S)-2-aminopropyl]-8-(2-cyclopropylethynyl)-4-(furfurylamino)-3,6-dithia-2-azabicyclo[3.3.0]octa-1,4,7-triene] showed an IC50 (total ATXN3 protein) of 501 to 5000 nM and an IC50 [1] of 101 to 500 nM.
With CC#Cc1c(C[C@@H](N)CO)sc2c(NCc3cccs3)snc12 [Compound 8, (R)-2-amino-3-{8-(1-propynyl)-4-thenylamino-3,6-dithia-2-azabicyclo[3.3.0]octa-1,4,7-trien-7-yl}-1-propanol] the IC50 (total ATXN3 protein) was 101 to 500 nM and the IC50 [1] was 0.01 to 100 nM.
CC#Cc1c(C[C@@H](N)CO)sc2c(NCc3ccco3)snc12 [Compound 9, (R)-2-amino-3-{4-(furfurylamino)-8-(1-propynyl)-3,6-dithia-2-azabicyclo[3.3.0]octa-1,4,7-trien-7-yl}-1-propanol] gave an IC50 (total ATXN3 protein) of 0.01 to 100 nM and an IC50 [1] of 0.01 to 100 nM.
Compound CC#Cc1c(C[C@H](C)N)sc2c(NCc3ccco3)snc12 [Compound 10, 7-[(S)-2-aminopropyl]-4-(furfurylamino)-8-(1-propynyl)-3,6-dithia-2-azabicyclo[3.3.0]octa-1,4,7-triene] has an IC50 (total ATXN3 protein) of 101 to 500 nM and an IC50 [1] of 101 to 500 nM.
With COCC#Cc1c(C[C@H](C)N)sc2c(NCc3ccco3)snc12 [Compound 11, 7-[(S)-2-aminopropyl]-4-(furfurylamino)-8-(3-methoxy-1-propynyl)-3,6-dithia-2-azabicyclo[3.3.0]octa-1,4,7-triene] the IC50 (total ATXN3 protein) was 501 to 5000 nM and the IC50 [1] was 501 to 5000 nM.
Work on COCC#Cc1c(C[C@H](C)N)sc2c(NCc3cccs3)snc12 [Compound 15, 7-[(S)-2-aminopropyl]-8-(3-methoxy-1-propynyl)-4-thenylamino-3,6-dithia-2-azabicyclo[3.3.0]octa-1,4,7-triene] yielded an IC50 (total ATXN3 protein) of 10000 to 40000 nM and an IC50 [1] of 10000 to 40000 nM.
Work on CCC#Cc1c(C[C@H](C)N)sc2c(NCc3cccs3)snc12 [Compound 16, 7-[(S)-2-aminopropyl]-8-(1-butynyl)-4-thenylamino-3,6-dithia-2-azabicyclo[3.3.0]octa-1,4,7-triene] yielded an IC50 (total ATXN3 protein) of 501 to 5000 nM and an IC50 [1] of 501 to 5000 nM.
Work on C[C@H](N)Cc1sc2c(NCc3cccs3)snc2c1C#CCF [Compound 17, 7-[(S)-2-aminopropyl]-8-(3-fluoro-1-propynyl)-4-thenylamino-3,6-dithia-2-azabicyclo[3.3.0]octa-1,4,7-triene] yielded an IC50 (total ATXN3 protein) of 501 to 5000 nM and an IC50 [1] of 101 to 500 nM.
CCC#Cc1c(C[C@@H](N)[C@H](C)F)sc2c(NCc3cccs3)snc12 [Compound 20, 7-[(2R,3S)-2-amino-3-fluorobutyl]-8-(1-butynyl)-4-thenylamino-3,6-dithia-2-azabicyclo[3.3.0]octa-1,4,7-triene] showed an IC50 (total ATXN3 protein) of 101 to 500 nM and an IC50 [1] of 101 to 500 nM.
CC#Cc1c(C[C@@H](N)[C@H](C)F)sc2c(NCc3ccccc3)snc12 [Compound 21, 7-[(2R,3S)-2-amino-3-fluorobutyl]-4-benzylamino-8-(1-propynyl)-3,6-dithia-2-azabicyclo[3.3.0]octa-1,4,7-triene] gave an IC50 (total ATXN3 protein) of 501 to 5000 nM and an IC50 [1] of 501 to 5000 nM.
CC#Cc1c(C[C@@H](N)[C@H](C)F)sc2c(NCc3ccco3)snc12 [Compound 22, 7-[(2R,3S)-2-amino-3-fluorobutyl]-4-(furfurylamino)-8-(1-propynyl)-3,6-dithia-2-azabicyclo[3.3.0]octa-1,4,7-triene] showed an IC50 (total ATXN3 protein) of 0.01 to 100 nM and an IC50 [1] of 0.01 to 100 nM.
Compound CC#Cc1c(C[C@@H](N)[C@H](C)F)sc2c(NCc3cccs3)snc12 [Compound 23, 7-[(2R,3S)-2-amino-3-fluorobutyl]-8-(1-propynyl)-4-thenylamino-3,6-dithia-2-azabicyclo[3.3.0]octa-1,4,7-triene] has an IC50 (total ATXN3 protein) of 101 to 500 nM and an IC50 [1] of 101 to 500 nM.
CC#Cc1c(C[C@@H](N)COC)sc2c(NCc3ccccc3)snc12 [Compound 24, 7-[(R)-2-amino-3-methoxypropyl]-4-benzylamino-8-(1-propynyl)-3,6-dithia-2-azabicyclo[3.3.0]octa-1,4,7-triene] was tested, and the IC50 (total ATXN3 protein) was 5000 to 10000 nM and the IC50 [1] was 10000 to 40000 nM.
With CC#Cc1c(C[C@@H](N)COC)sc2c(NCc3ccco3)snc12 [Compound 25, 7-[(R)-2-amino-3-methoxypropyl]-4-(furfurylamino)-8-(1-propynyl)-3,6-dithia-2-azabicyclo[3.3.0]octa-1,4,7-triene] the IC50 (total ATXN3 protein) was 501 to 5000 nM and the IC50 [1] was 101 to 500 nM.
Work on CC#Cc1c(C[C@@H](N)COC)sc2c(NCc3cccs3)snc12 [Compound 26, 7-[(R)-2-amino-3-methoxypropyl]-8-(1-propynyl)-4-thenylamino-3,6-dithia-2-azabicyclo[3.3.0]octa-1,4,7-triene] yielded an IC50 (total ATXN3 protein) of 501 to 5000 nM and an IC50 [1] of 501 to 5000 nM.
C[C@H](N)Cc1sc2c(NCc3cccs3)snc2c1C#CCO [Compound 27, 3-{7-[(S)-2-aminopropyl]-4-thenylamino-3,6-dithia-2-azabicyclo[3.3.0]octa-1,4,7-trien-8-yl}-2-propyn-1-ol] was tested, and the IC50 (total ATXN3 protein) was 501 to 5000 nM and the IC50 [1] was 501 to 5000 nM.
In the case of CC#Cc1c(C(F)(F)[C@H](C)N)sc2c(NCc3cccs3)snc12 [Compound 28, 7-[(S)-2-amino-1,1-difluoropropyl]-8-(1-propynyl)-4-thenylamino-3,6-dithia-2-azabicyclo[3.3.0]octa-1,4,7-triene], the IC50 (total ATXN3 protein) is reported as 501 to 5000 nM and the IC50 [1] is reported as 501 to 5000 nM.
Work on CC#Cc1c(C[C@@H](N)CC2CC2)sc2c(NCc3cccs3)snc12 [Compound 29, 7-[(S)-2-amino-3-cyclopropylpropyl]-8-(1-propynyl)-4-thenylamino-3,6-dithia-2-azabicyclo[3.3.0]octa-1,4,7-triene] yielded an IC50 (total ATXN3 protein) of 501 to 5000 nM and an IC50 [1] of 501 to 5000 nM.
CC#Cc1c(C[C@@H](N)CC2CC2)sc2c(NCc3ccco3)snc12 [Compound 30, 7-[(S)-2-amino-3-cyclopropylpropyl]-4-(furfurylamino)-8-(1-propynyl)-3,6-dithia-2-azabicyclo[3.3.0]octa-1,4,7-triene] was tested, and the IC50 (total ATXN3 protein) was 101 to 500 nM and the IC50 [1] was 101 to 500 nM.
CC#Cc1c(C[C@@H](N)C(F)F)sc2c(NCc3ccco3)snc12 [Compound 36, 7-[(R)-2-amino-3,3-difluoropropyl]-4-(furfurylamino)-8-(1-propynyl)-3,6-dithia-2-azabicyclo[3.3.0]octa-1,4,7-triene] was tested, and the IC50 (total ATXN3 protein) was 501 to 5000 nM and the IC50 [1] was 501 to 5000 nM.
For CC#Cc1c(C[C@@H](N)C(F)F)sc2c(NCc3cccs3)snc12 [Compound 37, 7-[(R)-2-amino-3,3-difluoropropyl]-8-(1-propynyl)-4-thenylamino-3,6-dithia-2-azabicyclo[3.3.0]octa-1,4,7-triene], the IC50 (total ATXN3 protein) was 5000 to 10000 nM and the IC50 [1] was 501 to 5000 nM.
